“Also recorded” adds a separate entry of the source. Read-outs that look alike come from different tables or passages of the source.
What was measured:
[1] = in vivo, plasma renal clearance, clinical data; cited from earlier work
OAT3 [2] = target: T1, OAT3 (Homo sapiens, UniProt Q8TCC7); assay: OAT3 uptake study in ciPTEC-OAT3; details: for Vb,max OAT3, Active and Passive Uptake: eq 4 fitted to CLint,u; for Vb,max OAT3, Active and Passive Uptake / Vb,max OAT3, Active Uptake Only: mean ± S.D.; for Vb,max OAT3, Active Uptake Only: eq 4 fitted to CLint,u,active
T1 sequence (Q8TCC7 1-542): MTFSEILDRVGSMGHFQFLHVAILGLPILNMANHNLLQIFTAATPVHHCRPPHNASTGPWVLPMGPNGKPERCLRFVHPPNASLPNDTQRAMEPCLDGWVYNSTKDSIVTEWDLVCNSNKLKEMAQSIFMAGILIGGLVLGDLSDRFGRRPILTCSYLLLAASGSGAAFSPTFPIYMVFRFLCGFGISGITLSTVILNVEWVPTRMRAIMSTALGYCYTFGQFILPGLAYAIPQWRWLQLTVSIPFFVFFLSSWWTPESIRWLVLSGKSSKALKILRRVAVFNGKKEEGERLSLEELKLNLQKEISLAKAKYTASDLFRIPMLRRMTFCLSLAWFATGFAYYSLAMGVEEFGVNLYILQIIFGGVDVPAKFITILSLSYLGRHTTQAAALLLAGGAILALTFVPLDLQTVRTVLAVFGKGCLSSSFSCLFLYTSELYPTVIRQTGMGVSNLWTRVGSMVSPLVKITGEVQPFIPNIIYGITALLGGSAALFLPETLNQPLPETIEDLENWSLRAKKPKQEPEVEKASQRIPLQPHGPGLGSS

human serum albumin = human serum albumin (Homo sapiens, UniProt P02768); assay: Extent of albumin binding: high throughput equilibrium dialysis (fu,inc, Kd); type: in vitro ADME; details: mean ± SD; for fu,inc (4%) / fraction unbound at 6 h: equilibrium dialysis 37 °C 6 h; for fraction unbound at 6 h: human
Method: Briefly, cellulose membranes with MWCO of 12–14 kDa were submerged in distilled water for 1 h, followed by 20% ethanol/distilled water for at least 20 min. Prior to the start of the experiment, cellulose membranes were rinsed in distilled water and submerged in blank DPBS for 15 min. The HTDialysis device was assembled according to the manufacturer’s instructions (https://www.htdialysis.com). Blank DPBS was first added to the receiver side of the dialysis membranes, followed by DPBS spiked with HSA and the OAT1/3 substrate to the donor side. Each HSA concentration was tested in triplicates. The HTDialysis device was sealed with an adhesive sealing film and incubated in a water bath at 37 °C for 6 h shaken at 150 rpm. Once the assay was completed, aliquots from both receiver and donor wells were transferred to a 96-well plate and stored at −80 °C until analysis. DPBS spiked with the OAT1/3 substrate from both before and after incubation was stored to assess the recovery and stability of the samples. To prepare the sample for analysis, donor and receiver samples were matrix-matched and quenched with ice-cold acetonitrile containing an internal standard (0.5 μM gemfibrozil or 0.05 μM buspirone).

OAT1/3 [3] = assay: Bottom-up IVIVE of CLint,sec, CLsec and CLr, relative expression factor (REF) approach; set-up: species or system human; details: REF approach
Description: (§1) The relative expression and relative activity factor (REF and RAF) are unitless scalers that account for in vivo versus in vitro differences in the abundance and activity of OAT1/3 and are used for IVIVE of in vitro CLint,u,active. REF was derived from the OAT1/3 expression ratio between the in vivo human kidney cortex to the in vitro ciPTEC-OAT1/3, as shown in eq 7: [drawing 8] 7 Absolute abundance of OAT1 and OAT3 in the human kidney cortex was previously quantified by our group using the filter-aided sample preparation protocol and global proteomic analysis.[44]

[4] = Observed in vivo (clinical) renal, secretion and intrinsic secretion clearance; details: in vivo; for CLint,sec Observed: back-calculated from clinical data
OAT1 [5] = assay: as above; details: human, plasma
OAT1 [6] = target: T2, OAT1 (Homo sapiens, UniProt Q4U2R8); assay: OAT1 uptake study in ciPTEC-OAT1
T2 sequence (Q4U2R8 1-563): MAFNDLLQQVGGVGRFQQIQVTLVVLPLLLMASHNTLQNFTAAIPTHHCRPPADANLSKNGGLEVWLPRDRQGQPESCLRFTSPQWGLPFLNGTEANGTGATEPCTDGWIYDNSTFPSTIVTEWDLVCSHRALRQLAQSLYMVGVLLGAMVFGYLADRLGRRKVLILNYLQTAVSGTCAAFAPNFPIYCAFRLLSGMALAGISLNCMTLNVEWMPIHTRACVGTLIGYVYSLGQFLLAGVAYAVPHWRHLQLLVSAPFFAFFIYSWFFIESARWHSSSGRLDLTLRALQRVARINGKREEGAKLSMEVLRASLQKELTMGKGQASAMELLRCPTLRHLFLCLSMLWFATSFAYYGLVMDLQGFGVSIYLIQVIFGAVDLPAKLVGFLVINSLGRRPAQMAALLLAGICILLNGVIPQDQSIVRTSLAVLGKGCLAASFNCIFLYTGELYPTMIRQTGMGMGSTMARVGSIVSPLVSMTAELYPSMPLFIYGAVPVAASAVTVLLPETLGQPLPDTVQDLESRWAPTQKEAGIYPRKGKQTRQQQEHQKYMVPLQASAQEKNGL

[7] = human, in vivo
OAT3 [8] = assay: clinical; details: human
OAT1/3 [9] = assay: Bottom-up IVIVE of CLint,sec, CLsec and CLr, relative activity factor (RAF) approach; set-up: species or system human
Description: as §1

[10] = 1% human serum albumin in DPBS, 1% HSA, read-out: fu,inc (1%)
[11] = 4% HSA in DPBS, 4% HSA, read-out: fu,inc (4%)

human serum albumin, sequence (P02768 25-609): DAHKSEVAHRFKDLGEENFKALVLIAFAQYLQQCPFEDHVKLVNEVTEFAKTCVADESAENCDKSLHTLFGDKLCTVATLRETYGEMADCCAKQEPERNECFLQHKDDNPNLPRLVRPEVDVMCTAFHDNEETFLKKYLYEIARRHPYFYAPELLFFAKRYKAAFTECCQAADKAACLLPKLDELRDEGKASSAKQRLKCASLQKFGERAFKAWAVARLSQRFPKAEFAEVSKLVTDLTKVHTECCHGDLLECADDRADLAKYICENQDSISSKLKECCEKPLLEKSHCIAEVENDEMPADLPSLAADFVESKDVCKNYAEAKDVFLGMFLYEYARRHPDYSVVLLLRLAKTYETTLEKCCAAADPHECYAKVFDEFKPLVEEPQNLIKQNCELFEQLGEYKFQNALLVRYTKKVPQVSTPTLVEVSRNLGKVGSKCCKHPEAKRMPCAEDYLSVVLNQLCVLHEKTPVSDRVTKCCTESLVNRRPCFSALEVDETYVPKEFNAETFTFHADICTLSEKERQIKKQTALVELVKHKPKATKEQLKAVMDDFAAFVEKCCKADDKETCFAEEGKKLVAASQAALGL

fraction unbound at 6 h (human serum albumin; [10])	fraction unbound at 6 h (human serum albumin; [11])	CLsec Observed [7]	Vb,max OAT3, Active and Passive Uptake (OAT3 [2])	Vb,max OAT3, Active Uptake Only (OAT3 [2])	SMILES	CLr Observed [1]	fu,inc (4%) (human serum albumin; 4% HSA)	CLint,sec Predicted 0% HSA (OAT1/3 [3])	CLint,sec Predicted 1% HSA (OAT1/3 [3])	CLint,sec Predicted 4% HSA (OAT1/3 [3])	CLsec Predicted 0% HSA (OAT1/3 [3])	CLsec Predicted 1% HSA (OAT1/3 [3])	CLsec Predicted 4% HSA (OAT1/3 [3])	CLint,sec Observed [4]	other results
0.973 ± 0.039	> 0.95	8.29 L/h	-1150 ± 2660 pmol/min/mg	-1120 ± 2640 pmol/min/mg	CCC(CC)O[C@@H]1C=C(C(=O)O)C[C@H](N)[C@H]1NC(C)=O [oseltamivir carboxylate]	15.6 L/h	0.983 ± 0.018								CLint,sec Observed [7]: 11.7 L/h; Effect of HSA on OAT3 uptake / CLint,u,active (OAT3 [2]; 1 and 4% HSA vs control): no effect; also recorded: did not show any significant change; also recorded: absence of any change; microsomal CLint (OAT3 [8]): 36.2 µL/min/mg
0.217 ± 0.006	0.096 ± 0.007	2.63 L/h	723 ± 216 pmol/min/mg	714 ± 201 pmol/min/mg	O=C(NC[C@H]1CN(c2ccc(N3CCOCC3=O)cc2)C(=O)O1)c1ccc(Cl)s1 [rivaroxaban]	3.17 L/h		6.78 L/h	41.7 L/h	67.0 L/h	0.48 L/h	2.79 L/h	4.32 L/h	41.2 L/h	ratio of CLint,u,active (R) (HSA/control) 1% (OAT3 [2]; OAT3, 1% HSA vs control): 6.44 ± 2.61; ratio of CLint,u,active (R) (HSA/control) 4% (OAT3 [2]; OAT3, 4% HSA vs control): 10.0 ± 2.2; Kd (human serum albumin; estimated using eq 3 from measured fu,inc): 55 ± 4.3 µM; CLint,sec Predicted 0% HSA (OAT1/3 [9]): 34.1 L/h; CLint,sec Predicted 1% HSA (OAT1/3 [9]): 210 L/h; CLint,sec Predicted 4% HSA (OAT1/3 [9]): 337.7 L/h; CLsec Predicted 0% HSA (OAT1/3 [9]): 2.32 L/h; CLsec Predicted 1% HSA (OAT1/3 [9]): 11.1 L/h; CLsec Predicted 4% HSA (OAT1/3 [9]): 15.4 L/h; OAT1 substrate status (uptake in ciPTEC-OAT1) (OAT1 [6]; control vs probenecid 300 μM): did not show any appreciable uptake

SMILES	fraction unbound at 6 h (human serum albumin; [10])	fraction unbound at 6 h (human serum albumin; [11])	CLsec Observed [7]	Vb,max OAT3, Active and Passive Uptake (OAT3 [2])	Vb,max OAT3, Active Uptake Only (OAT3 [2])	CLr Observed [1]	fu,inc (4%) (human serum albumin; 4% HSA)	CLint,sec Predicted 0% HSA (OAT1/3 [3])	CLint,sec Predicted 1% HSA (OAT1/3 [3])	CLint,sec Predicted 4% HSA (OAT1/3 [3])	CLsec Predicted 0% HSA (OAT1/3 [3])	CLsec Predicted 1% HSA (OAT1/3 [3])	CLsec Predicted 4% HSA (OAT1/3 [3])	CLint,sec Observed [4]	other results
Nc1ncnc2c1ncn2CCOCP(=O)(O)O [adefovir]	0.999 ± 0.019	> 0.95				14.2 L/h	0.977 ± 0.062	42.9 L/h	57.8 L/h	44.7 L/h	21.3 L/h	25.1 L/h	21.8 L/h	10.8 L/h	OAT3 substrate status (uptake in ciPTEC-OAT3) (OAT3 [2]; control vs probenecid 300 μM): not an OAT3 substrate; CLsec Observed ([4]; plasma secretion clearance): 7.82 L/h; microsomal CLint (OAT1 [5]): 35.2 µL/min/mg; Effect of HSA on OAT1 uptake / CLint,u,active (OAT1 [6]; 1 and 4% HSA vs control): no effect; also recorded: did not show any significant change; also recorded: absence of any change; Vb,max OAT1, Active and Passive Uptake (OAT1 [6]; eq 4 fitted to CLint,u, mean ± S.D.): -1083 ± 194000 pmol/min/mg; Vb,max OAT1, Active Uptake Only (OAT1 [6]; eq 4 fitted to CLint,u,active, Kd,m fixed from OAT3 data, mean ± S.D.): 3055 ± 188000 pmol/min/mg

— article PMC11372837, “Albumin-Mediated Drug Uptake by Organic Anion Transporter 1/3 Is Real: Implications for the Prediction of Active Renal Secretion Clearance” (Molecular Pharmaceutics, 2024)
